Reference: PubChem BioAssay AID2060602 (Molecular Pharmacology Branch, DTP, NCI, 2025)
“And” between values parts separate entries of the source, which are not always exact repeats. Equal entries are not always repeated.

Test system: 648629-189-R-J1-PDC complex spheroids viability
Test: Anticancer human tumor 648629-189-R-J1-PDC patient-derived bladder carcinoma cell line growth inhibition [CLK]
Details: for viability, T/C: stronger effect = lower value
How it was run: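 Patient-derived tumor cells grown as complex spheroids with HUVEC endothelial cells and mesenchymal stem cells, treated with drug combinations. Concentrations descend in half-log steps from near clinical Cmax, or from 10 microM if Cmax unknown.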

[1] = curve of first compound, second compound 0.0316 µM
[2] = curve of first compound, second compound 0.1 µM
[3] = curve of first compound, second compound 0.316 µM
[4] = curve of first compound, second compound 1 µM
[5] = curve of first compound, second compound 3.16 µM
[6] = curve of first compound, second compound 10 µM
[7] = second compound 0.0316 µM, first compound 0.0316 µM
[8] = second compound 0.0316 µM, first compound 0.1 µM
[9] = second compound 0.0316 µM, first compound 0.316 µM
[10] = second compound 0.0316 µM, first compound 1 µM
[11] = second compound 0.0316 µM, first compound 3.16 µM
[12] = second compound 0.0316 µM, first compound 10 µM
[13] = second compound 0.1 µM, first compound 0.0316 µM
[14] = second compound 0.1 µM, first compound 0.1 µM
[15] = second compound 0.1 µM, first compound 0.316 µM
[16] = second compound 0.1 µM, first compound 1 µM
[17] = second compound 0.1 µM, first compound 3.16 µM
[18] = second compound 0.1 µM, first compound 10 µM
[19] = second compound 0.316 µM, first compound 0.0316 µM
[20] = second compound 0.316 µM, first compound 0.1 µM
[21] = second compound 0.316 µM, first compound 0.316 µM
[22] = second compound 0.316 µM, first compound 1 µM
[23] = second compound 0.316 µM, first compound 3.16 µM
[24] = second compound 0.316 µM, first compound 10 µM
[25] = second compound 1 µM, first compound 0.0316 µM
[26] = second compound 1 µM, first compound 0.1 µM
[27] = second compound 1 µM, first compound 0.316 µM
[28] = second compound 1 µM, first compound 1 µM
[29] = second compound 1 µM, first compound 3.16 µM
[30] = second compound 1 µM, first compound 10 µM
[31] = second compound 3.16 µM, first compound 0.0316 µM
[32] = second compound 3.16 µM, first compound 0.1 µM
[33] = second compound 3.16 µM, first compound 0.316 µM
[34] = second compound 3.16 µM, first compound 1 µM
[35] = second compound 3.16 µM, first compound 3.16 µM
[36] = second compound 3.16 µM, first compound 10 µM
[37] = second compound 10 µM, first compound 0.0316 µM
[38] = second compound 10 µM, first compound 0.1 µM
[39] = second compound 10 µM, first compound 0.316 µM
[40] = second compound 10 µM, first compound 1 µM
[41] = second compound 10 µM, first compound 3.16 µM
[42] = second compound 10 µM, first compound 10 µM
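For viability, T/C in this document: drug exposure lasted seven days before viability readout; 100% = DMSO vehicle control wells.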

## CC1(C)CCC(CN2CCN(c3ccc(C(=O)NS(=O)(=O)c4ccc(NCC5CCOCC5)c([N+](=O)[O-])c4)c(Oc4cnc5[nH]ccc5c4)c3)CC2)=C(c2ccc(Cl)cc2)C1 + CN1CCN(c2cc(C(=O)Nc3cc4cc(-c5cnn(C)c5)ccc4cn3)ccn2)CC1
[1]
  IC50: > 10 µM
[2]
  IC50: > 10 µM
[3]
  IC50: < 0.0316 µM
[4]
  IC50: < 0.0316 µM
[5]
  IC50: < 0.0316 µM
[6]
  IC50: < 0.0316 µM
[7]
  viability, T/C: 114%
[8]
  viability, T/C: 112%
[9]
  viability, T/C: 110%
[10]
  viability, T/C: 97.4%
[11]
  viability, T/C: 86.2%
[12]
  viability, T/C: 66.6%
[13]
  viability, T/C: 112%
[14]
  viability, T/C: 116%
[15]
  viability, T/C: 97.4%
[16]
  viability, T/C: 107%
[17]
  viability, T/C: 91.8%
[18]
  viability, T/C: 56.1%
[19]
  viability, T/C: 37%
[20]
  viability, T/C: 52%
[21]
  viability, T/C: 41.4%
[22]
  viability, T/C: 47.8%
[23]
  viability, T/C: 35.7%
[24]
  viability, T/C: 24.2%
[25]
  viability, T/C: 0.21%
[26]
  viability, T/C: 0.41%
[27]
  viability, T/C: 0.38%
[28]
  viability, T/C: 0.27%
[29]
  viability, T/C: 0.36%
[30]
  viability, T/C: 1.01%
[31]
  viability, T/C: 0.1%
[32]
  viability, T/C: 0.35%
[33]
  viability, T/C: 0.14%
[34]
  viability, T/C: 0.13%
[35]
  viability, T/C: 0.12%
[36]
  viability, T/C: 0.7%
[37]
  viability, T/C: 0.13%
[38]
  viability, T/C: 0.17%
[39]
  viability, T/C: 0.16%
[40]
  viability, T/C: 0.54%
[41]
  viability, T/C: 0.17%
[42]
  viability, T/C: 0.16%

## COc1cccc2c1C(=O)c1c(O)c3c(c(O)c1C2=O)CC(O)(C(=O)CO)CC3OC1CC(N)C(O)C(C)O1 (configuration not stated) + CNC(=O)c1ccc(Nc2nc(OC3CCCC3)c3c(-c4ccc5nc(C)oc5c4)c[nH]c3n2)c(OC)c1
[1]
  IC50: < 0.0316 µM
[2]
  IC50: < 0.0316 µM
[3]
  IC50: < 0.0316 µM
[4]
  IC50: < 0.0316 µM
[5]
  IC50: < 0.0316 µM
[6]
  IC50: < 0.0316 µM
[7]
  viability, T/C: 26.4%
[8]
  viability, T/C: 13.9%
[9]
  viability, T/C: 5.64%
[10]
  viability, T/C: 0.45%
[11]
  viability, T/C: 0.38%
[12]
  viability, T/C: 0.54%
[13]
  viability, T/C: 19.4%
[14]
  viability, T/C: 11.8%
[15]
  viability, T/C: 5.03%
[16]
  viability, T/C: 0.29%
[17]
  viability, T/C: 1.37%
[18]
  viability, T/C: 2.64%
[19]
  viability, T/C: 16.4%
[20]
  viability, T/C: 13.1%
[21]
  viability, T/C: 6.53%
[22]
  viability, T/C: 0.2%
[23]
  viability, T/C: 0.98%
[24]
  viability, T/C: 0.49%
[25]
  viability, T/C: 12.5%
[26]
  viability, T/C: 10.1%
[27]
  viability, T/C: 4.27%
[28]
  viability, T/C: 0.27%
[29]
  viability, T/C: 0.56%
[30]
  viability, T/C: 3.36%
[31]
  viability, T/C: 18.9%
[32]
  viability, T/C: 13.1%
[33]
  viability, T/C: 4.42%
[34]
  viability, T/C: 0.23%
[35]
  viability, T/C: 0.79%
[36]
  viability, T/C: 1.4%
[37]
  viability, T/C: 21.1%
[38]
  viability, T/C: 13.5%
[39]
  viability, T/C: 8.07%
[40]
  viability, T/C: 0.28%
[41]
  viability, T/C: 2.28%
[42]
  viability, T/C: 3.42%

## COC1C=CCC(C)C(C)S(=O)(=O)NC(=O)c2ccc3c(c2)N(CC2CCC21)CC1(CCCc2cc(Cl)ccc21)CO3 (configuration not stated) + CN1CCN(c2cc(C(=O)Nc3cc4cc(-c5cnn(C)c5)ccc4cn3)ccn2)CC1
[1]
  IC50: 2.09 µM
[2]
  IC50: 2.1 µM
[3]
  IC50: < 0.0316 µM
[4]
  IC50: < 0.0316 µM
[5]
  IC50: < 0.0316 µM
[6]
  IC50: < 0.0316 µM
[7]
  viability, T/C: 106%
[8]
  viability, T/C: 99.9%
[9]
  viability, T/C: 93.2%
[10]
  viability, T/C: 82%
[11]
  viability, T/C: 32.4%
[12]
  viability, T/C: 3.21%
[13]
  viability, T/C: 114%
[14]
  viability, T/C: 94.4%
[15]
  viability, T/C: 92.4%
[16]
  viability, T/C: 80.1%
[17]
  viability, T/C: 33.3%
[18]
  viability, T/C: 3.02%
[19]
  viability, T/C: 50.2%
[20]
  viability, T/C: 46.9%
[21]
  viability, T/C: 37.9%
[22]
  viability, T/C: 14.4%
[23]
  viability, T/C: 4.72%
[24]
  viability, T/C: 1.78%
[25]
  viability, T/C: 0.38%
[26]
  viability, T/C: 0.34%
[27]
  viability, T/C: 0.42%
[28]
  viability, T/C: 0.15%
[29]
  viability, T/C: 0.13%
[30]
  viability, T/C: 0.08%
[31]
  viability, T/C: 0.13%
[32]
  viability, T/C: 0.12%
[33]
  viability, T/C: 0.16%
[34]
  viability, T/C: 0.14%
[35]
  viability, T/C: 0.43%
[36]
  viability, T/C: 0.12%
[37]
  viability, T/C: 0.17%
[38]
  viability, T/C: 0.13%
[39]
  viability, T/C: 0.2%
[40]
  viability, T/C: 0.21%
[41]
  viability, T/C: 0.24%
[42]
  viability, T/C: 0.51%

## Nc1ccn(C2OC(CO)C(O)C2(F)F)c(=O)n1 (configuration not stated)
Compound 0.0316 µM
  viability, T/C: 49.6% and 38.5%
Compound 0.1 µM
  viability, T/C: 18.4% and 12.3%
Compound 0.316 µM
  viability, T/C: 11.4% and 11%
Compound 1 µM
  viability, T/C: 6.88% and 9.43%
Compound 3.16 µM
  viability, T/C: 6.14% and 8.17%
Compound 10 µM
  viability, T/C: 4.28% and 6.46%
Curve of compound
  IC50: < 0.0316 µM

## CC(C)CC(NC(=O)C(Cc1ccccc1)NC(=O)c1cnccn1)B(O)O (configuration not stated)
Compound 0.000949 µM
  viability, T/C: 93.5% and 99.9%
Compound 0.003 µM
  viability, T/C: 73.2% and 41.8%
Compound 0.00949 µM
  viability, T/C: 1.45% and 1.53%
Compound 0.03 µM
  viability, T/C: 0.27% and 1.43%
Compound 0.0949 µM
  viability, T/C: 0.2% and 0.17%
Compound 0.3 µM
  viability, T/C: 1.64% and 0.18%
Curve of compound
  IC50: 0.00435 µM and 0.00255 µM

## COC1C=CCC(C)C(C)S(=O)(=O)NC(=O)c2ccc3c(c2)N(CC2CCC21)CC1(CCCc2cc(Cl)ccc21)CO3 (configuration not stated) + CNC(=O)c1ccc(Nc2nc(OC3CCCC3)c3c(-c4ccc5nc(C)oc5c4)c[nH]c3n2)c(OC)c1
[1]
  IC50: 1.79 µM
[2]
  IC50: 1.84 µM
[3]
  IC50: < 0.0316 µM
[4]
  IC50: < 0.0316 µM
[5]
  IC50: < 0.0316 µM
[6]
  IC50: < 0.0316 µM
[7]
  viability, T/C: 107%
[8]
  viability, T/C: 89%
[9]
  viability, T/C: 91.6%
[10]
  viability, T/C: 80.7%
[11]
  viability, T/C: 20.1%
[12]
  viability, T/C: 4.12%
[13]
  viability, T/C: 82.8%
[14]
  viability, T/C: 97.5%
[15]
  viability, T/C: 83.8%
[16]
  viability, T/C: 88.5%
[17]
  viability, T/C: 16.3%
[18]
  viability, T/C: 4.69%
[19]
  viability, T/C: 27.2%
[20]
  viability, T/C: 23.6%
[21]
  viability, T/C: 24.2%
[22]
  viability, T/C: 14%
[23]
  viability, T/C: 8.44%
[24]
  viability, T/C: 2.86%
[25]
  viability, T/C: 19.5%
[26]
  viability, T/C: 20.7%
[27]
  viability, T/C: 16.3%
[28]
  viability, T/C: 10.1%
[29]
  viability, T/C: 6.11%
[30]
  viability, T/C: 3.77%
[31]
  viability, T/C: 21.5%
[32]
  viability, T/C: 18.3%
[33]
  viability, T/C: 16.7%
[34]
  viability, T/C: 10.5%
[35]
  viability, T/C: 6.62%
[36]
  viability, T/C: 3.31%
[37]
  viability, T/C: 17.1%
[38]
  viability, T/C: 16.5%
[39]
  viability, T/C: 15.2%
[40]
  viability, T/C: 11.4%
[41]
  viability, T/C: 6.23%
[42]
  viability, T/C: 3.81%
